Experimental data from patent US6436963B1 (priority 1998, dated 2002).

How the values were obtained:
Type in all cases: in vivo
Leptosphaeria nodorum = test: Glume Blotch of Wheat (LEPTNO), protectant spray test on wheat seedlings; settings: wheat (cultivar Monon), sprayed to run off at 100 ppm, inoculated after 24 hours
Erysiphe graminis = test: Powdery Mildew of Wheat (ERYSGT), protectant spray test on wheat seedlings; settings: wheat (cultivar Monon), sprayed to run off at 100 ppm, inoculated after 24 hours
Puccinia recondita = test: Brown Rust (PUCCRT), protectant spray test on wheat seedlings; settings: wheat (cultivar Monon), sprayed to run off at 100 ppm, inoculated after 24 hours
Phytophthora infestans = settings: tomatoes (cultivar Rutgers), sprayed to run off at 100 ppm, inoculated after 24 hours

| Compound | LEPTNO control of plant disease (Leptosphaeria nodorum) | ERYSGT control of plant disease (Erysiphe graminis) | PUCCRT control of plant disease (Puccinia recondita) | PHYTIN control of plant disease (Phytophthora infestans) |
| --- | --- | --- | --- | --- |
| CNC(=O)C(=NOC)c1ccccc1COc1ncc(C(OC2CCCCO2)c2ccccc2)cc1Cl (mixture of isomers) [Example 57] | ++ (++ = 75-100% control of plant disease) | ++ (++ = 75-100% control of plant disease) | ++ (++ = 75-100% control of plant disease) | ++ (++ = 75-100% control of plant disease) |
| CNC(=O)C(=NOC)c1ccccc1COc1ncc(C(O)c2ccccc2)cc1Cl (racemic) [Example 1] | ++ (++ = 75-100% control of plant disease) | ++ (++ = 75-100% control of plant disease) | ++ (++ = 75-100% control of plant disease) | ++ (++ = 75-100% control of plant disease) |
| CNC(=O)C(=NOC)c1ccccc1COc1ncc(C(O)c2ccc(C)cc2C)cc1Cl (racemic) [Example 6] | − (− = 0-24% control of plant disease) | ++ (++ = 75-100% control of plant disease) | ++ (++ = 75-100% control of plant disease) | ++ (++ = 75-100% control of plant disease) |
| CNC(=O)C(=NOC)c1ccccc1COc1ncc(C(O)c2ccc(F)cc2)cc1Cl (racemic) [Example 7] | ++ (++ = 75-100% control of plant disease) | ++ (++ = 75-100% control of plant disease) | ++ (++ = 75-100% control of plant disease) | ++ (++ = 75-100% control of plant disease) |
| CNC(=O)C(=NOC)c1ccccc1COc1ncc(C(O)c2ccc(Cl)cc2)cc1Cl (racemic) [Example 9] | ++ (++ = 75-100% control of plant disease) | ++ (++ = 75-100% control of plant disease) | ++ (++ = 75-100% control of plant disease) | ++ (++ = 75-100% control of plant disease) |
| CNC(=O)C(=NOC)c1ccccc1COc1ncc(C(O)c2ccc(C(C)(C)C)cc2)cc1Cl (racemic) [Example 10] | ++ (++ = 75-100% control of plant disease) | ++ (++ = 75-100% control of plant disease) | ++ (++ = 75-100% control of plant disease) | ++ (++ = 75-100% control of plant disease) |
| CNC(=O)C(=NOC)c1ccccc1COc1ncc(C(O)c2cccc(C(F)(F)F)c2)cc1Cl (racemic) [Example 12] | ++ (++ = 75-100% control of plant disease) | ++ (++ = 75-100% control of plant disease) | ++ (++ = 75-100% control of plant disease) | ++ (++ = 75-100% control of plant disease) |
| CNC(=O)C(=NOC)c1ccccc1COc1ncc(C(C)OCc2ccc(OC)cc2)cc1Cl (racemic) [Example 17] | ++ (++ = 75-100% control of plant disease) | ++ (++ = 75-100% control of plant disease) | ++ (++ = 75-100% control of plant disease) | − (− = 0-24% control of plant disease) |
| CNC(=O)C(=NOC)c1ccccc1COc1ncc(C(C)OC(=O)C(C)(C)C)cc1Cl (racemic) [Example 24] | ++ (++ = 75-100% control of plant disease) | ++ (++ = 75-100% control of plant disease) | ++ (++ = 75-100% control of plant disease) | − (− = 0-24% control of plant disease) |
| CNC(=O)C(=NOC)c1ccccc1COc1ncc(C(C)(O)c2ccccc2)cc1Cl (racemic) [Example 26] | ++ (++ = 75-100% control of plant disease) | ++ (++ = 75-100% control of plant disease) | ++ (++ = 75-100% control of plant disease) | ++ (++ = 75-100% control of plant disease) |
| CNC(=O)C(=NOC)c1ccccc1COc1ncc(C(C)OCc2ccc(Cl)cc2)cc1Cl (racemic) [Example 27] | ++ (++ = 75-100% control of plant disease) | ++ (++ = 75-100% control of plant disease) | ++ (++ = 75-100% control of plant disease) | − (− = 0-24% control of plant disease) |
| CNC(=O)C(=NOC)c1ccccc1COc1ncc(C(OC(C)=O)c2ccccc2)cc1Cl (racemic) [Example 28] | ++ (++ = 75-100% control of plant disease) | − (− = 0-24% control of plant disease) | ++ (++ = 75-100% control of plant disease) | − (− = 0-24% control of plant disease) |
| CNC(=O)C(=NOC)c1ccccc1COc1ncc(C(OC(=O)c2ccccc2)c2ccccc2)cc1Cl (racemic) [Example 29] | ++ (++ = 75-100% control of plant disease) | + (+ = 25-74% control of plant disease) | ++ (++ = 75-100% control of plant disease) | + (+ = 25-74% control of plant disease) |
| CNC(=O)C(=NOC)c1ccccc1COc1ncc(C(OC(=O)C(C)(C)C)c2ccccc2)cc1Cl (racemic) [Example 30] | ++ (++ = 75-100% control of plant disease) | + (+ = 25-74% control of plant disease) | ++ (++ = 75-100% control of plant disease) | ++ (++ = 75-100% control of plant disease) |
| CNC(=O)C(=NOC)c1ccccc1COc1ncc(C(OC(=O)C(C)C)c2ccccc2)cc1Cl (racemic) [Example 32] | − (− = 0-24% control of plant disease) | − (− = 0-24% control of plant disease) | ++ (++ = 75-100% control of plant disease) | − (− = 0-24% control of plant disease) |
| CCOC(=O)OC(c1ccccc1)c1cnc(OCc2ccccc2C(=NOC)C(=O)NC)c(Cl)c1 (racemic) [Example 33] | ++ (++ = 75-100% control of plant disease) | + (+ = 25-74% control of plant disease) | ++ (++ = 75-100% control of plant disease) | ++ (++ = 75-100% control of plant disease) |
| CNC(=O)C(=NOC)c1ccccc1COc1ncc(C(C)(OC)c2ccccc2)cc1Cl (racemic) [Example 35] | ++ (++ = 75-100% control of plant disease) | ++ (++ = 75-100% control of plant disease) | ++ (++ = 75-100% control of plant disease) | − (− = 0-24% control of plant disease) |
| CCC(=O)OC(c1ccccc1)c1cnc(OCc2ccccc2C(=NOC)C(=O)NC)c(Cl)c1 (racemic) [Example 36] | ++ (++ = 75-100% control of plant disease) | + (+ = 25-74% control of plant disease) | ++ (++ = 75-100% control of plant disease) | ++ (++ = 75-100% control of plant disease) |
| CNC(=O)C(=NOC)c1ccccc1COc1ncc(C(OC(=O)C(F)(F)F)c2ccccc2)cc1Cl (racemic) [Example 37] | ++ (++ = 75-100% control of plant disease) | + (+ = 25-74% control of plant disease) | ++ (++ = 75-100% control of plant disease) | ++ (++ = 75-100% control of plant disease) |
| CNC(=O)C(=NOC)c1ccccc1COc1ncc(C(OC)c2ccccc2)cc1Cl (racemic) [Example 38] | ++ (++ = 75-100% control of plant disease) | + (+ = 25-74% control of plant disease) | ++ (++ = 75-100% control of plant disease) | − (− = 0-24% control of plant disease) |
| CNC(=O)C(=NOC)c1ccccc1COc1ncc(C(C)O)cc1Cl (racemic) [Example 40] | ++ (++ = 75-100% control of plant disease) | + (+ = 25-74% control of plant disease) | ++ (++ = 75-100% control of plant disease) | + (+ = 25-74% control of plant disease) |
| CCCCCOC(C)c1cnc(OCc2ccccc2C(=NOC)C(=O)NC)c(Cl)c1 (racemic) [Example 41] | ++ (++ = 75-100% control of plant disease) | ++ (++ = 75-100% control of plant disease) | ++ (++ = 75-100% control of plant disease) | − (− = 0-24% control of plant disease) |
| CCC(O)(c1ccccc1)c1cnc(OCc2ccccc2C(=NOC)C(=O)NC)c(Cl)c1 (racemic) [Example 42] | ++ (++ = 75-100% control of plant disease) | ++ (++ = 75-100% control of plant disease) | ++ (++ = 75-100% control of plant disease) | ++ (++ = 75-100% control of plant disease) |
| CNC(=O)C(=NOC)c1ccccc1COc1ncc(C(O)C(C)C)cc1Cl (racemic) [Example 43] | + (+ = 25-74% control of plant disease) | ++ (++ = 75-100% control of plant disease) | ++ (++ = 75-100% control of plant disease) | ++ (++ = 75-100% control of plant disease) |
| CNC(=O)C(=NOC)c1ccccc1COc1ncc(C(OC(C)=O)c2ccsc2)cc1Cl (stereo not shown) [Example 121] | – | ++ (++ = 75-100% control of plant disease) | – | ++ (++ = 75-100% control of plant disease) |
| CCOC(C)(c1ccccc1)c1cnc(OCc2ccccc2C(=NOC)C(=O)NC)c(Cl)c1 (stereo not shown) [Example 122] | – | ++ (++ = 75-100% control of plant disease) | – | − (− = 0-24% control of plant disease) |
